Results taken from ChEMBL document CHEMBL3046114, “Synthesis and phytotoxic activity of novel acylthiourea and 2H-1,2,4-thiadiazolo[2,3-]pyrimidine derivatives” (2012).

Columns and labels:
Type in all cases: functional
Conditions in all cases: read-out: GI
Echinochloa crus-galli [1] = experiment: Phytotoxicity against Echinochloa crus-galli (barnyard grass) germinated seed assessed as growth inhibition at 10 mg/L after 72 hr by culture dish method
Digitaria ciliaris [2] = experiment: Phytotoxicity against Digitaria ciliaris germinated seed assessed as growth inhibition at 100 mg/L after 72 hr by culture dish method
Chenopodium ficifolium [3] = experiment: Phytotoxicity against Chenopodium ficifolium germinated seed assessed as growth inhibition at 100 mg/L after 72 hr by culture dish method
Echinochloa crus-galli [4] = experiment: Phytotoxicity against Echinochloa crus-galli (barnyard grass) germinated seed assessed as growth inhibition at 100 mg/L after 72 hr by culture dish method
Brassica napus [5] = experiment: Phytotoxicity against Brassica napus (oilseed rape) germinated seed assessed as growth inhibition at 100 mg/L after 72 hr by culture dish method
Chenopodium ficifolium [6] = experiment: Phytotoxicity against Chenopodium ficifolium germinated seed assessed as growth inhibition at 10 mg/L after 72 hr by culture dish method
Digitaria ciliaris [7] = experiment: Phytotoxicity against Digitaria ciliaris germinated seed assessed as growth inhibition at 10 mg/L after 72 hr by culture dish method
Brassica napus [8] = experiment: Phytotoxicity against Brassica napus (oilseed rape) germinated seed assessed as growth inhibition at 10 mg/L after 72 hr by culture dish method

Structure (SMILES)	inhibition of growth at 10 µg/mL (Echinochloa crus-galli [1]) [%]	inhibition of growth at 100 µg/mL (Digitaria ciliaris [2]) [%]	inhibition of growth at 100 µg/mL (Chenopodium ficifolium [3]) [%]	inhibition of growth at 100 µg/mL (Echinochloa crus-galli [4]) [%]	inhibition of growth at 100 µg/mL (Brassica napus [5]) [%]	inhibition of growth at 10 µg/mL (Chenopodium ficifolium [6]) [%]	inhibition of growth at 10 µg/mL (Digitaria ciliaris [7]) [%]	inhibition of growth at 10 µg/mL (Brassica napus [8]) [%]
CSc1cc(C)nc(NC(=S)NC(=O)c2c(-c3ccc(Cl)cc3Cl)noc2C)n1	27.4	45.5	86.1	47.1	73.6	32.8	26.7	42.4
COc1cc(Cl)nc(NC(=S)NC(=O)c2c(-c3ccc(Cl)cc3Cl)noc2C)n1	18.5	62.2	53.2	56.3	61	21.9	14.6	30.7
COc1cc(OC)nc(NC(=S)NC(=O)c2c(-c3ccc(Cl)cc3Cl)noc2C)n1	21.8	65.9	78.6	60.9	70.8	30.7	32	35.2
COc1cc(SC)nc(NC(=S)NC(=O)c2c(-c3ccc(Cl)cc3Cl)noc2C)n1	19.3	55.6	60.3	40.9	69.2	-8.31	34.8	18.7
Cc1cc(C)n2s/c(=N\C(=O)c3c(-c4ccc(Cl)cc4Cl)noc3C)nc2n1	25.2	84.9	76.9	76	76.8	26.7	15.2	46.3
Cc1cc(O)n2s/c(=N\C(=O)c3c(-c4ccc(Cl)cc4Cl)noc3C)nc2n1	30.5	72.1	59.3	65.8	79.2	32.9	30.1	38.5
Cc1onc(-c2ccc(Cl)cc2Cl)c1C(=O)/N=c1/nc2nc(Cl)cc(C)n2s1	25.8	68.1	73.6	55.6	70.2	18.6	32.8	20.1
COc1cc(C)nc2n/c(=N/C(=O)c3c(-c4ccc(Cl)cc4Cl)noc3C)sn12	30.9	80.6	80.4	80.5	80.6	45.7	50.3	26.4
CSc1cc(C)nc2n/c(=N/C(=O)c3c(-c4ccc(Cl)cc4Cl)noc3C)sn12	37.5	70.6	75.2	75.4	62.8	21.9	26.8	32.8
COc1cc(Cl)nc2n/c(=N/C(=O)c3c(-c4ccc(Cl)cc4Cl)noc3C)sn12	10.8	72.8	65.9	40.8	70.8	19.3	16.5	28.6
COc1cc(OC)n2s/c(=N\C(=O)c3c(-c4ccc(Cl)cc4Cl)noc3C)nc2n1	43.2	85.3	82.7	85.6	85.6	28.9	53.8	49.3
COc1cc(SC)nc2n/c(=N/C(=O)c3c(-c4ccc(Cl)cc4Cl)noc3C)sn12	21.4	79.6	68.3	55.6	75.8	23.8	19.8	27.4
Cc1cc(C)nc(NC(=S)NC(=O)c2c(-c3ccc(Cl)cc3Cl)noc2C)n1	18.5	61.4	65.4	64.7	68	16.9	26.5	16.1
Cc1cc(O)nc(NC(=S)NC(=O)c2c(-c3ccc(Cl)cc3Cl)noc2C)n1	-9.78	49.3	46.7	46.8	52.3	-5.86	-6.24	6.7
Cc1cc(Cl)nc(NC(=S)NC(=O)c2c(-c3ccc(Cl)cc3Cl)noc2C)n1	-6.84	44.2	48.3	48.7	50.8	28.9	10.2	8.36
COc1cc(C)nc(NC(=S)NC(=O)c2c(-c3ccc(Cl)cc3Cl)noc2C)n1	12.3	60.2	59.8	61.8	69.3	15.3	30.2	15.7
CCOC(=O)[C@@H](C)Oc1ccc(Oc2nc3ccc(Cl)cc3o2)cc1 [FENOXAPROP-P-ETHYL]	58.4	85.6	48.7	71.8	42.2	16.8	35.7	16.4
